Reference: patent US10086028B2, “Method for treating vascular inflammation, improving skin beauty and improving male sexual function using ginseng berry” (AMOREPACIFIC CORPORATION, priority 2007, dated 2018)

Key:
[1] = test system: Macrophages (Raw 264.7 cells); assay: Inhibition of LPS-induced NO generation in macrophages (Griess reaction); format: cell-based; settings: LPS 1 μg/mL
Procedure: Effect of inhibiting LPS-induced NO generation in macrophages was tested in order to confirm the effect of inhibiting vascular inflammation of the ginseng berry extract.
Macrophages (Raw 264.7 cells) were cultured in a medium containing 10% serum under the condition of 5% CO2. After culturing on a 96-well plate incubator to a concentration of 2×10^5 cells/well and stimulating with LPS (1 μg/mL), the cells were treated with the ginseng berry extract of Example 1 (50 μg/mL and 100 μg/mL), the ginseng berry saponin concentrate of Example 2 (100 μg/mL), the ginseng root extract of Comparative Example 1 (100 μg/mL) or ginsenosides Rg1, Rg2, Rh1 or Re (10 μg/mL and 20 μg/mL), respectively. After keeping the treated cells at 37° C. for 1 hour, the degree of NO generation was measured to compare the effect of inhibiting LPS-induced NO generation of the test substances. NO generation (μM) was measured using the Griess reaction [Minghetti, L. et al., 1991, Glia 19. 152-160]. Measurement was made twice and the mean value was calculated.

TNF-α = assay: LPS-induced inflammatory factor TNF-α in mouse blood; format: in vivo; settings: mouse blood about 12 h after LPS, intra-abdominal
Procedure: (§1) Based on the experimental result in the cell level, the effect of controlling vascular inflammation of the ginseng berry extract was tested in an animal model. Mice were grouped into a non-treated group, an LPS-induced group, a group treated with the ginseng berry extract of Example 1 (50 μg/mL and 100 μg/mL), a group treated with the ginseng berry saponin concentrate of Example 2 (100 μg/mL), a group treated with the ginseng root extract of Comparative Example 1 (100 μg/mL) and groups treated with ginsenosides Rg1, Rg2, Rh1 or Re (10 μg/mL and 20 μg/mL), with 5 mice per each group.
(§2) 100 mg of each test substance per kg body weight of mouse, diluted in saline solution (0.9% NaCl), was intra-abdominally injected three times from day 1 through day 3. 2 hours after the injection on day 3, LPS diluted in saline solution (1 μg/mL) was injected intra-abdominally at a concentration of about 4 mg per kg body weight of mouse to induce inflammation by inflammatory factors (PGE2, TNF-α and IL1-β). After approximately 12 hours, the abdomen of the mouse was cut open, and blood was taken from the artery of the heart and stored at […]. The blood was kept at room temperature for 30 minutes and, after centrifuge at 4° C. and 3,000 rpm for 10 minutes, the supernatant was kept at −20° C. Then, the inflammatory factors PGE2, TNF-α and IL1-β were identified by western blotting. Measurement was made twice and the mean value was calculated. The result is shown in Table 4 and FIG. 9 (PGE2 (ng/mL)), Table 5 and FIG. 10 (TNF-α (ng/mL)), and Table 6 and FIG. 11 (IL1-β (pg/mL)).

IL1-β = assay: LPS-induced inflammatory factor IL1-β in mouse blood; format: in vivo; settings: mouse blood about 12 h after LPS, intra-abdominal
Procedure: as §1, §2

[2] = test system: human HaCaT keratinocytes; assay: Antioxidative effect: removal of UV-generated ROS in HaCaT keratinocytes; format: cell-based; settings: ROS generated by UV in HaCaT; sample 10 μg/mL (Trolox given as (10))
Source text: Antioxidative effect of the ginseng berry extract was investigated by comparing the ability of removing reactive oxygen species (ROS) generated in human HaCaT keratinocytes by ultraviolet (UV) radiation.

Human epidermal cells = assay: Hyaluronic acid production in human epidermal cells; format: cell-based; settings: 48 hours, relative to control; sample 10 μg/mL
Procedure: Human epidermal cells were cultured and the medium was replaced by one containing the ginseng berry extract of Example 1 (1 μg/mL, 10 μg/mL and 100 μg/mL), the ginseng berry saponin concentrate of Example 2 (10 μg/mL), the ginseng root extract of Comparative Example 1 (10 μg/mL) or ginsenosides Rg1, Rg2, Rh1 or Re (10 μg/mL) or a general medium (control). The cells were then cultured for 48 hours under the same conditions. Then, the quantity of hyaluronic acid in the groups was compared using a hyaluronic acid measurement kit. The result is given as relative value with respect to the control group in Table 16 and FIG. 20.

| Structure (SMILES) | NO generation relative to negative control (%) ([1]; sample 10 μg/mL) | NO generation, Mean ± standard deviation ([1]; sample 10 μg/mL) [µM] | NO generation, Result 1 ([1]; sample 10 μg/mL) [µM] | NO generation, Result 2 ([1]; sample 10 μg/mL) [µM] | NO generation relative to negative control (%) ([1]; sample 20 μg/mL) | NO generation, Mean ± standard deviation ([1]; sample 20 μg/mL) [µM] | NO generation, Result 1 ([1]; sample 20 μg/mL) [µM] | NO generation, Result 2 ([1]; sample 20 μg/mL) [µM] | TNF-α, Mean ± standard deviation (TNF-α; group (10 μg/mL)) [ng/mL] | TNF-α, Result 1 (TNF-α; group (10 μg/mL)) [ng/mL] | TNF-α, Result 2 (TNF-α; group (10 μg/mL)) [ng/mL] | TNF-α, Mean ± standard deviation (TNF-α; group (20 μg/mL)) [ng/mL] | TNF-α, Result 1 (TNF-α; group (20 μg/mL)) [ng/mL] | TNF-α, Result 2 (TNF-α; group (20 μg/mL)) [ng/mL] | IL1-β, Mean ± standard deviation (IL1-β; group (10 μg/mL)) [pg/mL] | IL1-β, Result 1 (IL1-β; group (10 μg/mL)) [pg/mL] | IL1-β, Result 2 (IL1-β; group (10 μg/mL)) [pg/mL] | IL1-β, Mean ± standard deviation (IL1-β; group (20 μg/mL)) [pg/mL] | IL1-β, Result 1 (IL1-β; group (20 μg/mL)) [pg/mL] | IL1-β, Result 2 (IL1-β; group (20 μg/mL)) [pg/mL] | other results |
| --- | --- | --- | --- | --- | --- | --- | --- | --- | --- | --- | --- | --- | --- | --- | --- | --- | --- | --- | --- | --- | --- |
| CC(C)=CCC[C@](C)(O[C@@H]1O[C@H](CO)[C@@H](O)[C@H](O)[C@H]1O)[C@H]1CC[C@]2(C)[C@@H]1[C@H](O)C[C@@H]1[C@@]3(C)CC[C@H](O)C(C)(C)[C@@H]3[C@@H](O[C@@H]3O[C@H](CO)[C@@H](O)[C@H](O)[C@H]3O)C[C@]12C [Rg1] | 101.2 | 16.83 ± 0.63 | 16.38 | 17.27 | 99.3 | 16.50 ± 1.06 | 15.75 | 17.25 | 38.60 ± 2.69 | 36.7 | 40.5 | 34.55 ± 2.90 | 36.6 | 32.5 | 133.50 ± 7.78 | 128 | 139 | 141.50 ± 9.19 | 135 | 148 | Antioxidative effect (%) [2]: 2%; Hyaluronic acid production (%) (Human epidermal cells): 100% |
| CC(C)=CCC[C@](C)(O)[C@H]1CC[C@]2(C)[C@@H]1[C@H](O)C[C@@H]1[C@@]3(C)CC[C@H](O)C(C)(C)[C@@H]3[C@@H](O[C@@H]3O[C@H](CO)[C@@H](O)[C@H](O)[C@H]3O[C@@H]3O[C@@H](C)[C@H](O)[C@@H](O)[C@H]3O)C[C@]12C [Rg2] | 100.3 | 16.68 ± 0.45 | 17.00 | 16.36 | 97.4 | 16.19 ± 0.01 | 16.18 | 16.19 | 35.05 ± 2.47 | 33.3 | 36.8 | 31.60 ± 1.98 | 30.2 | 33 | 131.50 ± 3.54 | 129 | 134 | 125.00 ± 8.49 | 131 | 119 | Antioxidative effect (%) [2]: 1%; Hyaluronic acid production (%) (Human epidermal cells): 105% |
| CC(C)=CCC[C@](C)(O)[C@H]1CC[C@]2(C)[C@@H]1[C@H](O)C[C@@H]1[C@@]3(C)CC[C@H](O)C(C)(C)[C@@H]3[C@@H](O[C@@H]3O[C@H](CO)[C@@H](O)[C@H](O)[C@H]3O)C[C@]12C [Rh1] | 89.4 | 14.86 ± 0.07 | 14.92 | 14.81 | 75.1 | 12.48 ± 0.26 | 12.29 | 12.66 | 32.55 ± 5.16 | 28.9 | 36.2 | 32.15 ± 3.32 | 29.8 | 34.5 | 121.50 ± 7.78 | 116 | 127 | 112.75 ± 6.72 | 108 | 117.5 | Antioxidative effect (%) [2]: 3%; Hyaluronic acid production (%) (Human epidermal cells): 100% |
